Results from ChEMBL document CHEMBL4190189, “Exploring Jolkinol D Derivatives To Overcome Multidrug Resistance in Cancer” (J Nat Prod, 2017).

How the values were obtained:
L5178Y [1] = assay: Cytotoxicity against mouse L5178Y cells assessed as reduction in cell viability after 72 hrs by MTT assay; type: cell-based
L5178Y [2] = assay: Cytotoxicity against mouse L5178Y cells transfected with human ABCB1 assessed as reduction in cell viability after 72 hrs by MTT assay; type: functional, cell-based
[3] = target: T1, ATP-dependent translocase ABCB1 (Homo sapiens, UniProt P08183); assay: Modulation of human ABCB1 expressed in mouse L5178Y cells assessed as fluorescence activity ratio at 2 uM pretreated for 10 mins followed by rhodamine-123 addition measured after 20 mins by flow cytometry (reference value: 0.87); type: cell-based
T1 sequence (P08183 whole entry): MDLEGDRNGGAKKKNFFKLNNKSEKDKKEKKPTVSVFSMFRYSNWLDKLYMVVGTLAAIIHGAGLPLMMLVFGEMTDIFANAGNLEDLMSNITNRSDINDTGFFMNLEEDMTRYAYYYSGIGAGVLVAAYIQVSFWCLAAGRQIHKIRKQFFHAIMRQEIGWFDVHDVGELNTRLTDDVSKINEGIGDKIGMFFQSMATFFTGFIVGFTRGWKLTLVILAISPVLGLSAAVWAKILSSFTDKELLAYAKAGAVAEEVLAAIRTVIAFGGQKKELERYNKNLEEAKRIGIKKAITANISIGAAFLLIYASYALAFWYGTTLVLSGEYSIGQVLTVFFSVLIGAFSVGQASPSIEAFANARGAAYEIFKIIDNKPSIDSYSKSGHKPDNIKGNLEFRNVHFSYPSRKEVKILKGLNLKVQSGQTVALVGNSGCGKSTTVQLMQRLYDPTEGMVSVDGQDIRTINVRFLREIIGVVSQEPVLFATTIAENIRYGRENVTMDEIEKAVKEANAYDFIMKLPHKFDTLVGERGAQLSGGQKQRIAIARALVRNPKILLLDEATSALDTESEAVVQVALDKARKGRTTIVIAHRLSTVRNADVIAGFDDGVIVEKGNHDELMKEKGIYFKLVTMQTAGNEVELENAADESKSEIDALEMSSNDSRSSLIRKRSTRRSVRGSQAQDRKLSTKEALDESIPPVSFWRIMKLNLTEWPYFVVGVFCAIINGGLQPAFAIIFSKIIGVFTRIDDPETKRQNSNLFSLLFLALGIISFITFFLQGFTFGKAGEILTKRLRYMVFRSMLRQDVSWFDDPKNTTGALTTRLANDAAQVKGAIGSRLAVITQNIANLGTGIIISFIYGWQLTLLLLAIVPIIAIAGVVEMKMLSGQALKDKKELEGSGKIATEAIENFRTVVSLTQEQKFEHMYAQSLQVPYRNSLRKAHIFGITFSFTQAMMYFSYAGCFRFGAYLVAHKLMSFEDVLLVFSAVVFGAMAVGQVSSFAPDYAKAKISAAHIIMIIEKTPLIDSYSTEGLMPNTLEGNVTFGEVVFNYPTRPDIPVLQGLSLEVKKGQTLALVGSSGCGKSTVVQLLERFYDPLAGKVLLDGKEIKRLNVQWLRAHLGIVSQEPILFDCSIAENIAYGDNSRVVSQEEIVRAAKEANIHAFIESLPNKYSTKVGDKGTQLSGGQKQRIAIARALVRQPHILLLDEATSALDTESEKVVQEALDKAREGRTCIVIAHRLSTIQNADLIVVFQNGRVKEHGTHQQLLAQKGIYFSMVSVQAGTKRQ

[4] = target: T1, ATP-dependent translocase ABCB1; assay: Modulation of human ABCB1 expressed in mouse L5178Y cells assessed as fluorescence activity ratio at 20 uM pretreated for 10 mins followed by rhodamine-123 addition measured after 20 mins by flow cytometry (reference value: 0.87); type: cell-based
[5] = Resistance ratio of IC50 for human EPP85-181P cells to IC50 for human EPP85-181RDB cells; type: functional
[6] = target: T1, ATP-dependent translocase ABCB1; assay: Inhibition of human ABCB1 expressed in mouse L5178Y cells assessed as potentiation of doxorubicin-induced cytotoxicity by measuring combination index at 10:1 compound to doxorubicin ratio after 48 hrs by MTT assay; type: cell-based
[7] = target: T1, ATP-dependent translocase ABCB1; assay: Inhibition of human ABCB1 ATPase activity expressed in Sf9 insect cell membranes assessed as reduction in verapamil-stimulated vanadate-sensitive ATPase activity at 50 to 100 uM measured after 10 mins by colorimetric method
[8] = target: ABCB1 (P-glycoprotein) ATPase (Homo sapiens, UniProt P08183); assay: Inhibition of human ABCB1 ATPase activity expressed in Sf9 insect cell membranes assessed as reduction in verapamil-stimulated vanadate-sensitive ATPase activity at 1.56 to 25 uM measured after 10 mins by colorimetric method relative to control; conditions: Sf9 insect cell membranes expressing human ABCB1, probe verapamil (ATPase stimulator)
ABCB1 (P-glycoprotein) ATPase, sequence (P08183 whole entry): as above

[9] = Resistance ratio of IC50 for human EPG85-257P cells to IC50 for human EPG85-257RDB cells; type: functional
[10] = Cytotoxicity against human EPG85-257RNOV cells assessed as reduction in cell viability after 5 days by SRB assay; type: functional, cell-based; conditions: 120 h
[11] = Resistance ratio of IC50 for human EPG85-257P cells to IC50 for human EPG85-257RNOV cells; type: functional
[12] = target: T1, ATP-dependent translocase ABCB1; assay: Inhibition of human ABCB1 expressed in mouse L5178Y cells assessed as potentiation of doxorubicin-induced cytotoxicity by measuring combination index at 50:1 compound to doxorubicin ratio after 48 hrs by MTT assay; type: cell-based
[13] = Induction of apoptosis in human EPG85-257P cells at 30 uM after 72 hrs by annexin-V/propidium iodide staining based flow cytometric method relative to control; type: cell-based
[14] = Induction of apoptosis in human EPG85-257RDB cells at 30 uM after 72 hrs by annexin-V/propidium iodide staining based flow cytometric method relative to control; type: functional
[15] = Induction of apoptosis in human EPG85-257P cells assessed as caspase-3 activation at 30 uM after 72 hrs by flow cytometric method relative to control; type: cell-based; conditions: EPG85-257P cells, read-out: FC
[16] = Induction of apoptosis in human EPG85-257RDB cells assessed as caspase-3 activation at 30 uM after 72 hrs by flow cytometric method relative to control; type: functional
[17] = Induction of apoptosis in human EPG85-257RNOV cells assessed as caspase-3 activation at 30 uM after 72 hrs by flow cytometric method relative to control; type: functional
[18] = Induction of apoptosis in human EPP85-181RNOV cells at 30 uM after 72 hrs by annexin-V/propidium iodide staining based flow cytometric method relative to control; type: functional
[19] = Induction of apoptosis in human EPP85-181RDB cells at 30 uM after 72 hrs by annexin-V/propidium iodide staining based flow cytometric method relative to control; type: functional
[20] = Induction of apoptosis in human EPP85-181RNOV cells assessed as caspase-3 activation at 30 uM after 72 hrs by flow cytometric method relative to control; type: functional
[21] = Induction of apoptosis in human EPG85-257RNOV cells at 30 uM after 72 hrs by annexin-V/propidium iodide staining based flow cytometric method relative to control; type: functional
[22] = Resistance ratio of IC50 for human EPP85-181P cells to IC50 for human EPP85-181RNOV cells; type: functional
[23] = target: T1, ATP-dependent translocase ABCB1; assay: Inhibition of human ABCB1 expressed in mouse L5178Y cells assessed as potentiation of doxorubicin-induced cytotoxicity by measuring combination index at 25:1 compound to doxorubicin ratio after 48 hrs by MTT assay; type: cell-based

Row | SMILES | Ratio [3] | Ratio [4] | IC50 (L5178Y [1]) | IC50 (L5178Y [2]) | Ratio IC50 [9] | further results
1 | C/C1=C/[C@H]2[C@@H](OC(=O)c3ccc(C(F)(F)F)cc3)[C@@H](C)C[C@]2(O)C(=O)/C(C)=C/[C@@H]2[C@H](CC1)C2(C)C | 3 | 9.9 | > 19 µM | > 80 µM |  | Ratio IC50 [5]: 0.4
2 | CC(=O)O[C@]12C[C@H](C)[C@H](OC(=O)c3ccc(C(F)(F)F)cc3)[C@@H]1/C=C(/C)CC[C@H]1[C@@H](/C=C(\C)C2=O)C1(C)C | 9.4 | 25.4 | > 19 µM | > 80 µM | 0.4 | IC50 [10]: < 10 µM; Ratio IC50 [11]: 0.2
3 | CC(=O)O[C@]12C[C@H](C)[C@H](OC(=O)c3cccc(C(F)(F)F)c3)[C@@H]1/C=C(/C)CC[C@H]1[C@@H](/C=C(\C)C2=O)C1(C)C |  |  |  |  |  | fold change (FC) [13]: 4; fold change (FC) [14]: 6; fold induction at 72 h, 30 µM [15]: 6 to 9; fold change (FC) [16]: 6 - 9; fold change (FC) [17]: 6 - 9; fold change (FC) [18]: 4.5; fold change (FC) [19]: 3.5; fold change (FC) [20]: 12; fold change (FC) [21]: 4
4 | C/C1=C/[C@H]2[C@@H](OC(=O)c3ccc(-c4ccccc4)cc3)[C@@H](C)C[C@]2(O)C(=O)/C(C)=C/[C@@H]2[C@H](CC1)C2(C)C | 4.8 | 19 | > 19 µM | > 80 µM |  | Ratio IC50 [22]: 0.4; Ratio IC50 [5]: 0.4
5 | CC(=O)O[C@]12C[C@H](C)[C@H](OC(=O)c3cccc(C)c3)[C@@H]1/C=C(/C)CC[C@H]1[C@@H](/C=C(\C)C2=O)C1(C)C | 2.2 | 18 | > 19 µM | > 80 µM |  | IC50 [10]: < 10 µM
6 | COc1cccc(C(=O)O[C@H]2[C@@H](C)C[C@]3(OC(C)=O)C(=O)/C(C)=C/[C@@H]4[C@H](CC/C(C)=C\[C@@H]23)C4(C)C)c1 | 26.1 | 36.4 | > 19 µM | > 19 µM | 0.3 | CI [23]: 0.84

Now from value to compound, other results behind:

Row | Ratio [3] | Ratio [4] | SMILES | IC50 (L5178Y [1]) | IC50 (L5178Y [2]) | Ratio IC50 [9] | further results
7 | 33.3 | 39.6 | COc1ccccc1C(=O)O[C@H]1[C@@H](C)C[C@]2(OC(C)=O)C(=O)/C(C)=C/[C@@H]3[C@H](CC/C(C)=C\[C@@H]12)C3(C)C | > 19 µM | > 19 µM | 0.2 | CI [6]: 0.09; inhibition (INH) [7]: Active; inhibition at 10 min [8]: 100%
8 | 28.6 | 41.5 | CC(=O)O[C@]12C[C@H](C)[C@H](OC(=O)/C=C/c3ccccc3)[C@@H]1/C=C(/C)CC[C@H]1[C@@H](/C=C(\C)C2=O)C1(C)C | > 19 µM | > 19 µM | 0.2 | CI [12]: 1.13
